# Results taken from US10730892B2, “Homoallylamines as formaldehyde-responsive triggers” (The Regents of the University of California, priority 2015, dated 2020).
# Values joined by “and” are separate entries in the source; they are usually repeats but may differ in a detail not shown here. Equal entries are not always repeated. Where two headings read alike, the source gives them in different places.
# Assays:
# HEK293TN cells = settings: 5 mM FA, 37° C., 3 hrs
# Method: (§1) Nuclear magnetic resonance (NMR) spectra were recorded on Varian 400 or 500 MHz spectrometers at 25° C. Chemical shifts are reported in ppm (δ) and are referenced to residual protic peaks. The following abbreviations are used to describe coupling constants: singlet (s), doublet (d), triplet (t), quartet (q), doublet doublet (dd), doublet triplet (dt), doublet quartet (dq), doublet doublet triplet (ddt), multiplet (m), and broad singlet (bs). IR spectra were recorded with a PerkinElmer Spectrum Two infrared (IR) spectrometer. High-resolution mass spectra were acquired with a Waters Q-TOF Ultima ESI mass spectrometer and a Waters Synapt G2-Si ESI/LC-MS mass spectrometer. UV-visible spectra were recorded on a Cary 60 spectrometer. Fluorescence spectra were acquired on a QuantaMaster-400 scanning spectrofluorometer with micro fluorescence quartz cuvettes (Science Outlet). Flow cytometry was performed on a BD Biosciences LSR II (San Jose, Calif., USA), and the data were analyzed as described using FACSDiva software.
# (§2) HEK293TN cells were obtained from Prof. Paul Hergenrother (UIUC, Chemistry) and cultured in phenol-red free Dulbecco's modified eagle medium (DMEM, Corning) supplemented with 10% fetal bovine serum (FBS, Sigma Aldrich), and 1% penicillin/streptomycin (Corning). Neuroscreen-1 cells were obtained from Prof. Kai Zhang (UIUC, Biochemistry) and cultured in Ham's F-12K medium (Sigma Aldrich) supplemented with 15% horse serum (Hyclone), 2.5% fetal bovine serum (FBS, Sigma Aldrich), and 1% penicillin/streptomycin (Corning). Cells were incubated at 37° C. and 5% CO2. One day before imaging, cells were passed and plated on 8-well chambered coverglasses (Lab-Tek) at a density of 40,000 cells per mL (or 20,000 cells per well). Cells would reach 70-80% confluency before imaging. […] Samples of HEK293TN and NS1 cells for flow cytometry were prepared by passaging and seeding each well of a 6-well cluster culture dish (Cyto-One) with 300,000 cells one day before experiments. […] Stained cells were aspirated and serum-free DMEM added. Subsequently, a 10× concentrated FA solution was added to give a final concentration of 1.0 mM. 2.5 mM and 5 mM. After incubation cells with FA, the media was removed and replaced with serum-free DMEM. Finally, cells were trypsinized, pelleted via centrifugation, resuspended in phosphate-buffered saline (PBS) for flow cytometric analysis.
# NS1 cells = settings: 37° C., 3 hrs
# Method: as §1, §2
# [1] = for fold increase in fluorescence intensity: 3 h
# Method: All experiments were performed at 37° C. for 3 h. Time points on graphs a-b are recorded every 15 min. The time points for graphs c-d represent every 30 min.
# All buffers used for pH titrations were prepared in deionized water and brought to the appropriate pH with aqueous HCl or NaOH. The buffers used were 50 mM glycine (pH range 2.00-3.50), 50 mM NaOAc (pH range 4.00-5.60), 50 mM MES (pH range 5.60-6.80), 50 mM HEPES (pH range 6.80-8.20), 50 mM Tris (pH range 8.20-9.50) and 50 mM glycine (pH range 9.50-10.40). A 10 mM stock solution of formaldehyde for in vitro titration experiments was prepared by heating a suspension of paraformaldehyde (>88% w/w, 17.6 mg, 0.50 mmol, TCI, lot # NXR2B) in phosphate buffered saline (PBS) buffered to pH 7.4 (50 mL) at 88° C. for 1 hr. The solution was cooled to room temperature and filtered through a 0.22 μm syringe filter (Millex).
# as §1
# In addition to its ability to crosslink biomolecules, FA is cytotoxic through the induction of oxidative stress (Zararsiz et al., Cell Biochem. Fund. 2007, 25:413).
structure (smiles),measurement,setting,value
C=CCC(NCc1ccc([N+](=O)[O-])cc1)c1cn(C)c2cc(C)c(C3=C4C=CC(=O)C=C4[Si](C)(C)c4c3cc3c5c4CCCN5CCC3)cc12 (stereo not drawn) [FP1],"fold turn-on, median APC-A fluorescence intensity (flow cytometry)",HEK293TN cells,~2.5 fold
same,fluorescence turn-on (flow cytometry),"NS1 cells; NS1, 0.25 mM FA",42%
same,fluorescence turn-on (flow cytometry),"NS1 cells; NS1, 0.5 mM FA",50%
same,fold increase by flow cytometry,"NS1 cells; NS1, 5 mM FA",4.2 fold
same,fold increase in fluorescence intensity,"[1]; 1 μM FP1, 0.1 mM FA, PBS pH 7.4, 37° C.",3.9 fold
same,fold fluorescence increase,"[1]; 1 μM FP1, 0.25 mM FA, PBS pH 7.4, 37° C., 3 hrs",ca. 7.0 fold
same,fold increase in fluorescence intensity,"[1]; 1 μM FP1, 0.5 mM FA, PBS pH 7.4, 37° C.",8.5 fold
same,fold increase in fluorescence intensity,"[1]; 1 μM FP1, 1 mM FA, PBS pH 7.4, 37° C.",12.8 fold and 11.6 fold
same,lower limit of detection of FP1,"[1]; FA, after 3 hrs incubation at 37° C.",0.01 mM
